According to patent publication US7019019B2, “Matriptase inhibitors and methods of use” (Dendreon Corporation, priority 2002, dated 2006):

What was measured:
Assay type in all cases: biochemical
α-thrombin = α-thrombin (Homo sapiens, UniProt P00734); assay: Thrombin (fIIa) chromogenic assay (Pefachrome t-PA)
Protocol: (§1) The ability of compounds to act as a selective inhibitor of matriptase activity was assessed by determining the concentration of test-compound which inhibited the activity of matriptase by 50%, (IC50) as described in Example A, and comparing IC50 value for matriptase to that determined for all or some of the following serine proteases: thrombin, recombinant tissue plasminogen activator (rt-PA), plasmin, activated protein C, chymotrypsin, factor Xa and trypsin.
(§2) The buffer used for all assays was HBSA (10 mM HEPES, pH 7.5, 150 mM sodium chloride, 0.1% bovine serum albumin).
(§3) The assay for IC50 determinations was conducted by combining in appropriate wells of a Corning microtiter plate, 50 microliters of HBSA, 50 microliters of the test compound at a specified concentration (covering a broad concentration range) diluted in HBSA (or HBSA alone for V0 (uninhibited velocity) measurement), and 50 microliters of the enzyme diluted in HBSA. Following a 30 minute incubation at ambient temperature, 50 microliters of the substrate at the concentrations specified below were added to the wells, yielding a final total volume of 200 microliters. The initial velocity of chromogenic substrate hydrolysis was measured by the change in absorbance at 405 nm using a Thermo Max® Kinetic Microplate Reader over a 5 minute period in which less than 5% of the added substrate was utilized. The concentration of added inhibitor which caused a 50% decrease in the initial rate of hydrolysis was defined as the IC50 value.
Enzyme activity was determined using the chromogenic substrate, Pefachrome t-PA (CH3SO2-D-hexahydrotyrosine-glycyl-L-Arginine-p-nitroaniline, obtained from Pentapharm Ltd.). The substrate was reconstituted in deionized water prior to use.
The initial velocity of Pefachrome t-PA hydrolysis was measured by the change in absorbance at 405 nm using a Thermo Max® Kinetic Microplate Reader over a 5 minute period in which less than 5% of the added substrate was utilized. The concentration of added inhibitor which caused a 50% decrease in the initial rate of hydrolysis was defined as the IC50 value.

Factor Xa = target: T1, Factor Xa (Homo sapiens, UniProt P00742); assay: Factor Xa chromogenic assay (S-2765); details: read-out: Ki FXa
T1 construct: purchased Enzyme Research Laboratories, Inc. (South Bend, Ind.)
T1 sequence (P00742 235-488 limits assumed): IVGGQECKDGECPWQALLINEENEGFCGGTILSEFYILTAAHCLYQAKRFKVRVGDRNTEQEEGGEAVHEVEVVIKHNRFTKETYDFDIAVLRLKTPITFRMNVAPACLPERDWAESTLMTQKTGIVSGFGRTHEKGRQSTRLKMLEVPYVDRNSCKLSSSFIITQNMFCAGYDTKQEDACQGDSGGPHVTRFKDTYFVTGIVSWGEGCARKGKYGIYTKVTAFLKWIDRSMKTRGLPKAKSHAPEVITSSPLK
T1 sequence (P00742 41-179 partner limits assumed): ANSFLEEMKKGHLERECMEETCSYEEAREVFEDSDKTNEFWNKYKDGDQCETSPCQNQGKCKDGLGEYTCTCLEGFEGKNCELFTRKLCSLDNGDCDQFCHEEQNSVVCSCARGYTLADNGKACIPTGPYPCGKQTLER
Protocol: as §1, §2
as §3, with “The concentration of added inhibitor which caused a 50% decrease in the initial rate of hydrolysis was defined as the IC50 value.” left out
Factor Xa catalytic activity was determined using the chromogenic substrate S-2765 (N-benzyloxycarbonyl-D-arginine-L-glycine-L-arginine-p-nitro aniline), obtained from DiaPharma Group (Franklin, Ohio). All substrates were reconstituted in deionized water prior to use. […] Purified human Factor X was obtained from Enzyme Research Laboratories, Inc. (South Bend, Ind.) and Factor Xa (FXa) was activated and prepared from it as described [Bock, P. E., Craig, P. A., Olson, S. T., and Singh, P. Arch. Biochem. Biophys. 273:375-388 (1989)]. The enzyme was diluted into HBSA prior to assay in which the final concentration was 0.25 nM.

Matriptase = target: T2, Matriptase (Homo sapiens, UniProt Q9Y5Y6); assay: Amidolytic assay for inhibition of serine protease activity of matriptase or MTSP1
T2 sequence (Q9Y5Y6 1-855 C731S): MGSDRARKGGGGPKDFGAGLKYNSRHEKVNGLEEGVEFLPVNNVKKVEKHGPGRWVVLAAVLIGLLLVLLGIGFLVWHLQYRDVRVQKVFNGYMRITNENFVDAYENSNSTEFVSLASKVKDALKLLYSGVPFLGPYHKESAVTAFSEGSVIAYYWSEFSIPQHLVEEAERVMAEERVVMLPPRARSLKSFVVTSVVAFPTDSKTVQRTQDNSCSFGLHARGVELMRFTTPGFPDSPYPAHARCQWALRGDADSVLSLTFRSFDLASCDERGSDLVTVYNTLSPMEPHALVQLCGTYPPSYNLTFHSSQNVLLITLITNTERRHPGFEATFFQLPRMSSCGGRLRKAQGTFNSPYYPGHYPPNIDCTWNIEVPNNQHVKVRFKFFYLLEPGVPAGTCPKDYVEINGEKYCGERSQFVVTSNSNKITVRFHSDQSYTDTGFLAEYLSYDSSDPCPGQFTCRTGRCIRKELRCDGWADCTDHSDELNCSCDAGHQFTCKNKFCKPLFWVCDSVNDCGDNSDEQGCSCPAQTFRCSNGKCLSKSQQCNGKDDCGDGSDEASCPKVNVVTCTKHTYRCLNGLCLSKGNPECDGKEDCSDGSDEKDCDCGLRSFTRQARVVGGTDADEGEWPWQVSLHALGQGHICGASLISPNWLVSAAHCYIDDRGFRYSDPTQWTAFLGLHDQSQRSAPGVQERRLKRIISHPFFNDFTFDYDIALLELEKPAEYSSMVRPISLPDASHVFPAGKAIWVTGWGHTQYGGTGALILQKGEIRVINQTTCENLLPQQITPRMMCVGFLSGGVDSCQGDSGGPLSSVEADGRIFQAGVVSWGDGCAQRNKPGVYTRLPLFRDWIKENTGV

[1] = target: T3, (Homo sapiens, UniProt Q9BYE2); assay: In vitro enzyme assay for specificity: Endothelin 2
T3 sequence (Q9BYE2 326-586): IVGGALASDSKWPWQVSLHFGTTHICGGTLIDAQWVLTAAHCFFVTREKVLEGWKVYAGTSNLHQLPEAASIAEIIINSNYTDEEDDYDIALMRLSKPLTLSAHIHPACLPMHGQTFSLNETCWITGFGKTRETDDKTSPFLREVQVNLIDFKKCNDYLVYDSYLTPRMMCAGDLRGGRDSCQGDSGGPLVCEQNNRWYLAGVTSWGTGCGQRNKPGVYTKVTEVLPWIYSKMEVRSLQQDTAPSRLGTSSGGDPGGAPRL

[2] = target: T4, (Homo sapiens, UniProt Q9UL52); assay: In vitro enzyme assay for specificity: Endothelin 1
T4 sequence (Q9UL52 192-423): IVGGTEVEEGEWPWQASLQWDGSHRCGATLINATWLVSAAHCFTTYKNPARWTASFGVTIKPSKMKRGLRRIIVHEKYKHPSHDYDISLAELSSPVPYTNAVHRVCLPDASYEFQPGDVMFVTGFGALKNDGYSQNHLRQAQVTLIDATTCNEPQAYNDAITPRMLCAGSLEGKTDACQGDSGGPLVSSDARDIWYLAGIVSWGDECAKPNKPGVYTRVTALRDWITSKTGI

plasmin = plasmin (Homo sapiens, UniProt P00747); assay: Plasmin chromogenic assay (S-2366)
plasmin, sequence (P00747 581-810 limits assumed): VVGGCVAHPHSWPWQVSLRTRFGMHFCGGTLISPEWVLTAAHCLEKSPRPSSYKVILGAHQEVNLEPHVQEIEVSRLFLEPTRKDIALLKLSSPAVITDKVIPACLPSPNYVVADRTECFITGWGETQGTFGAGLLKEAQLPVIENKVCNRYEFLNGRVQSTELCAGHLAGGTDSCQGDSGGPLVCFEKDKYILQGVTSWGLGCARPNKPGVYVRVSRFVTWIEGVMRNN
plasmin, sequence (P00747 97-580 partner limits assumed): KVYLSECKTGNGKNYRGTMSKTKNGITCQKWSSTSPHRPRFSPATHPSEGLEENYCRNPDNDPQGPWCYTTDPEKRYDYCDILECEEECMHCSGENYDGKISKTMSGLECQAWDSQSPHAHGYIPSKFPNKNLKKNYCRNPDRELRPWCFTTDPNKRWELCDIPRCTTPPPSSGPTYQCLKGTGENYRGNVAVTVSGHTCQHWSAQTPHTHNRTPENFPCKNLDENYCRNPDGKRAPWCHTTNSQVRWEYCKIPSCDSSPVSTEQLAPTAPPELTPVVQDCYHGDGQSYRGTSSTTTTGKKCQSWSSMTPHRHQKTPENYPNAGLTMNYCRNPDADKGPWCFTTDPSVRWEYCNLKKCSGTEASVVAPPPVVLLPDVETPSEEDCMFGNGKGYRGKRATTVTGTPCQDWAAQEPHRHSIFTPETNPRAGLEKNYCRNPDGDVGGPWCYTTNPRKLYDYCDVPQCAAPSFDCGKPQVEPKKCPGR
Protocol: as §1, §2, §3
Plasmin catalytic activity was determined using the chromogenic substrate, S-2366 [L-pyroglutamyl-L-prolyl-L-arginine-p-nitroaniline hydrochloride], which was obtained from DiaPharma group. The substrate was made up in deionized water followed by dilution in HBSA prior to the assay in which the final concentration was 300 micromolar (about 2.5-times Km). Purified human plasmin was obtained from Enzyme Research Laboratories, Inc. The enzyme was diluted into HBSA prior to assay in which the final concentration was 1.0 nM.

Molecule | Ki (α-thrombin) | Ki (Factor Xa) | Ki (Matriptase) | Ki (plasmin) | Ki [1] | Ki [2]
3(3-Amdn)Bn-3(Methsulfone)hydantoin-G-(2-Amdn)thiazole-2-MeAm | > 2500 nM | > 2500 nM | 100 to 250 nM |  | > 2500 nM | > 2500 nM
COC(=O)CCC(N)(Cc1cccc(C(=N)N)c1)C(=O)NCC(=O)NCc1ccc(C(=N)N)s1 (stereo not drawn) [(Me)E(alpha-(3-Amdn)Bn)-G-(2-Amdn)thiophene-5MeAm] |  |  | 100 to 250 nM |  |  | 
N=C(N)c1cccc(CC(N)(CCC(=O)O)C(=O)NCC(=O)NCc2ccc(C(=N)N)s2)c1 (stereo not drawn) [E(alpha-(3-Amdn)Bn)-G-(2-Amdn)thiophene-5MeAm] | 500 to 2500 nM | 500 to 2500 nM | 100 to 250 nM | 500 to 2500 nM |  | 
COC(=O)N[C@](CCC(=O)OC(C)(C)C)(Cc1cccc(C(=N)N)c1)C(=O)NCC(=O)NCc1ccc(C(=N)N)s1 [MeOCO(t-Bu)E(R)(alpha-(3-Amdn)Bn)-G-(2-Amdn)thiophene-5-MeAm] | > 2500 nM | 500 to 2500 nM | < 100 nM | > 2500 nM |  | 
COC(=O)CC[C@](Cc1cccc(C(=N)N)c1)(NC(=O)OC)C(=O)NCC(=O)NCc1nc(C(=N)N)cs1 [MeOCO-(Me)E(α-(3-Amdn)Bn)-G-(4-Amdn)thiazole-2-MeAm] | > 2500 nM | > 2500 nM | 250 to 500 nM |  |  | 

Further lines, with some results ahead:

Ki (α-thrombin) | Ki (Factor Xa) | Ki (Matriptase) | Ki (plasmin) | Molecule | Ki [1] | Ki [2]
250 to 500 nM | > 2500 nM | 100 to 250 nM |  | COC(=O)NC(CCC(=O)OC(C)(C)C)(Cc1cccc(C(=N)N)c1)C(=O)NCC(=O)NCc1ccc(C(=N)N)cc1 (stereo not drawn) [MeOCO-E(O-t-Butyl)(alpha-(3-Amdn)Bn)-G-(4-Amdn)BnAm] |  | 
> 2500 nM | 250 to 500 nM | 100 to 250 nM |  | COC(=O)NC(CCS(C)(=O)=O)(Cc1ccnc(N)c1)C(=O)NCC(=O)NCc1ccc(C(=N)N)s1 (stereo not drawn) [N-MeOCO-(α-(3-Am)4-pyrMe)M(O2)-G-(2-Amdn)thiophene-5-MeAm] |  | 
500 to 2500 nM | > 2500 nM | < 100 nM | 500 to 2500 nM | N=C(N)c1cccc(C[C@@]2(C(=O)NCC(=O)NCc3ccc(C(=N)N)s3)CCC(=O)N2)c1 [α-(3-Amdn)BnPyro-G-(2-Amdn)thiophene-5-MeAm] |  | 
 | 500 to 2500 nM | < 100 nM | > 2500 nM | alpha-(3-amidinoBn)MeSO2-G-(2-Amdn)thiophene-5-MeAm |  | > 2500 nM
250 to 500 nM |  | 250 to 500 nM |  | iBoc-(Me)E(R)(alpha-(3-Amdn)Bn)-G-(2-Amdn)thiophene-5MeAm |  | 
